“Also recorded” adds a separate entry of the source. Counter-ions that a name gives are not always drawn.
How the values were obtained:
sciatic nerve [1] = assay: Evoked compound action potentials (CAP), ipsilateral sciatic nerve after intraneural injection; assay type: in vivo, male Sprague Dawley (SD) rats; conditions: for effect of yohimbine pre-administration on elimination of evoked sciatic action potentials by clonidine: 1 mg yohimbine SQ 5 minutes prior to 500 μg intraneural clonidine, HCL
From the text: (§1) It is noted that alpha 2 adrenergic receptors are not expressed along the peripheral axons of the nerve. They are on nerve endings and in the spinal cord, where peripheral nerves synapse with interneurons in the dorsal horn. There also may be receptor-mediated effects on immunoinflammatory cells. […] However, there was no effect on the left sciatic nerve.
2 m Amp stimulation in the ankle causes the action potential to propagate up to the tibial nerves and then the sciatic nerve to the dorsal horn of the spinal cord in the rat model.
(§2) Methods: Peripheral nerve function was assessed by evoked action potentials (sciatic nerve) as well as spinal somatosensory evoked potentials in male Sprague Dawley (SD) rats. The tibial nerve was stimulated with 10 milliamperes (mA) constant current delivered with platinum micro-electrodes placed proximal to the internal ankle. Recording electrodes were placed near the proximal sciatic nerve at the sciatic notch (ipsilateral and contralateral nerves) and over the L5 interlaminar space. Measurements were obtained with a Biopac MP36 amplifier and data acquisition unit (Biopac Systems, Goleta, Cal). Following collection of baseline data, test solutions were administered directly into the subparaneural compartment of the right sciatic nerve, approximately 0.5 cm proximal to the tibial/fibular bifurcation, using a Hamilton HPLC injection syringe (20 μl, injection volume). Saline served as the negative control and commercial 2% lidocaine for injection served as the positive control.
(§3) FIG. 21 depicts representative compound action potential traces (CAP), sciatic nerve. A stimulating electrode delivered 10 mAMP current to the distal tibial nerve near the internal ankle, and a recording electrode was placed near the proximal sciatic nerve (at the sciatic notch). Following baseline recordings (top row), test solution was injected directly into the sciatic nerve (20 μl volume). Evoked compound action potentials at 3 minutes and approximately 50 minutes post-injection appear in the middle and bottom rows, respectively.

sciatic nerve [2] = assay: Spinal somatosensory evoked potentials (SSEP) after intraneural sciatic injection; assay type: in vivo, male Sprague Dawley (SD) rats
Description: as §2

[3] = test system: contralateral sciatic nerve; assay: Evoked action potentials, contralateral sciatic nerve; assay type: in vivo, male Sprague Dawley (SD) rats
Description: as §1, §2, §3

incisional pain model = conditions: no temporal relationship to systemic exposure; cited from earlier work
[4] = commercial 2% lidocaine for injection, 20 μl intraneural
[5] = intraneural injection, 20 μl, 4 parameter non-linear regression

Compound: COC(=O)[C@@H]1[C@H]2C[C@H]3c4[nH]c5ccccc5c4CCN3C[C@@H]2CC[C@@H]1O [yohimbine HCL]
- effect of yohimbine pre-administration on elimination of evoked sciatic action potentials by clonidine (sciatic nerve [1]): unaffected; also recorded: no effect
- effect of yohimbine pre-administration on elimination of evoked sciatic action potentials by clonidine (sciatic nerve [1]; listed as yohimbine): no effect
- effect of yohimbine pre-administration on sciatic nerve block duration by clonidine (sciatic nerve [1]; pre-administration t=(−)10 minutes): did not inhibit
- effect of yohimbine pre-administration on reduction in spinal SEP amplitude by clonidine (sciatic nerve [2]; 1 mg yohimbine prior to 500 μg intraneural clonidine): no effect

Compound: CCN(CC)CC(=O)Nc1c(C)cccc1C [lidocaine]
- time through which sciatic evoked potential amplitude differed from control (p<0.05) (sciatic nerve [1]; 2% lidocaine): 35 min
- time for which compound action potentials in the ipsilateral sciatic nerve and spine were eliminated (sciatic nerve [1]; [4]): > 20 min
- time over which nerve function recovered (sciatic nerve [1]; positive control 2% lidocaine (Example 1)): approximately one hour
- effect on the contralateral sciatic nerve [3, 4]: did not affect

Compound: Clc1cccc(Cl)c1N=C1NCCN1 [clonidine, 2,6-dichloro-N-2-imidazolidinyldenebenzenamine]
- effect on CAP amplitude (sciatic nerve [1]; 50 μg intraneural): no discernable effect
- time through which sciatic evoked potential amplitude differed from control (p<0.05) (sciatic nerve [1]; 100 μg): 7 min
- effect on action potential (CAP) amplitude (sciatic nerve [1]; 100 μg intraneural, versus control, 3 minutes): significant reduction; also recorded: significantly blunted
- time through which sciatic evoked potential amplitude differed from control (p<0.05) (sciatic nerve [1]; 200 μg): 18 min
- effect on action potential (CAP) amplitude (sciatic nerve [1]; 200 μg intraneural): significantly greater reduction
- effect on action potential (CAP) amplitude (sciatic nerve [1]; 200 μg intraneural, listed as clonidine HCL): virtually eliminated
- time through which sciatic evoked potential amplitude differed from control (p<0.05) (sciatic nerve [1]; 500 μg): 35 min
- effect on compound action potentials in the ipsilateral sciatic nerve (sciatic nerve [1]; 500 μg intraneural): reliably eliminated
- doses at which an anesthetic like effect was observed (sciatic nerve [1]; Example 1, clinically relevant doses): < 100 µg
- dose injected directly into nerve that eliminates the action potential (sciatic nerve [1]; Example 2, 2 m Amp stimulation in the ankle): ≥ 50 µg
- duration of effect (sciatic nerve [1]; Example 2, 500 mcg lasts a lot longer than 50 mcg): proportional to dose
- nerve conduction velocity as nerve fibers return to function (sciatic nerve [1]; higher doses): approximately normal
- effect on propagation of action potentials, right sciatic nerve (sciatic nerve [1]; injected directly into the right sciatic nerve of the rat (Example 1)): blocked the ability of the nerve to propagate action potentials to the spinal cord
- EC50 for evoked compound action potentials in the sciatic nerve (sciatic nerve [1]; [5]): 71 µg
- effect on nerve conduction velocity (ipsilateral sciatic nerve) (sciatic nerve [1]; lower doses, fibers that continue to propagate action potentials): modest
- effect on the contralateral sciatic nerve ([3]; 500 μg intraneural): no effect
- effect on the contralateral sciatic nerve ([3]; any dose of clonidine (50-500 μg), including spinal recordings following contralateral stimulation): not affected
- effect on the left sciatic nerve ([3]; injected into the right sciatic nerve (Example 1)): no effect
- animals in which spinal somatosensory evoked potentials were eliminated (sciatic nerve [2]; 500 μg intraneural): 3 out of 4
- EC50 for spinal somatosensory evoked potentials (sciatic nerve [2]; [5]): 118 µg
- skin concentrations associated with analgesic effect (incisional pain model): ≥ 10 ng/g
